Reference: ChEMBL document CHEMBL3046879, “Synthesis, antimicrobial evaluation, and QSAR analysis of 2-isopropyl-5-methylcyclohexanol derivatives” (Med Chem Res, 2012)

Key:
[1] = Octanol-water partition coefficient, log P of the compound; format: physicochemical
[2] = system: Bacillus subtilis; assay: Antimicrobial activity against Bacillus subtilis MTCC 2423 after 24 hr by serial dilution method; format: functional
[3] = system: Escherichia coli; assay: Antimicrobial activity against Escherichia coli MTCC 739 after 24 hr by serial dilution method; format: functional
[4] = system: Candida albicans; assay: Antimicrobial activity against Candida albicans MTCC 227 after 2 days by serial dilution method; format: functional
[5] = system: Aspergillus niger; assay: Antimicrobial activity against Aspergillus niger MTCC 2425 after 7 days by serial dilution method; format: functional
[6] = system: Staphylococcus aureus; assay: Antimicrobial activity against Staphylococcus aureus MTCC 1430 after 24 hr by serial dilution method; format: functional

Row | Compound | logP [1] | -logMIC [2] | -logMIC [3] | -logMIC [4] | -logMIC [5] | -logMIC [6]
1 | COc1ccccc1C(=O)O[C@@H]1C[C@H](C)CC[C@H]1C(C)C | 4.57 | 1.98 | 1.97 | 1.97 | 2.07 | 2.06
2 | CC(Cl)C(=O)O[C@@H]1C[C@H](C)CC[C@H]1C(C)C (some centres undefined) | 4.04 | 1.9 | 1.9 | 1.9 | 1.9 | 1.6
3 | CC(C)[C@@H]1CC[C@@H](C)C[C@H]1OC(=O)CCl | 3.5 | 1.86 | 1.79 | 1.87 | 2.17 | 2
4 | CCC(=O)O[C@@H]1C[C@H](C)CC[C@H]1C(C)C | 3.54 | 1.88 | 1.75 | 1.83 | 2.13 | 1.75
5 | CC(=O)O[C@@H]1C[C@H](C)CC[C@H]1C(C)C | 2.91 | 1.8 | 1.5 | 1.8 | 1.98 | 1.5
6 | CC(C)[C@@H]1CC[C@@H](C)C[C@H]1OC(=O)/C=C/c1ccc([N+](=O)[O-])cc1 | 5.18 | 2.33 | 2.33 | 2.33 | 2.18 | 2.03
7 | CC(C)[C@@H]1CC[C@@H](C)C[C@H]1OC(=O)/C=C/c1cccc([N+](=O)[O-])c1 | 5.18 | 2.03 | 2.14 | 2.33 | 2.33 | 2.33
8 | CC(C)[C@@H]1CC[C@@H](C)C[C@H]1OC(=O)/C=C/c1ccccc1[N+](=O)[O-] | 5.18 | 2.03 | 2.33 | 2.33 | 2.33 | 2.33
9 | CC(C)[C@@H]1CC[C@@H](C)C[C@H]1OC(=O)/C=C/c1ccccc1 | 5.23 | 2.26 | 1.96 | 1.96 | 2.01 | 1.96
10 | Cc1cccc(C(=O)O[C@@H]2C[C@H](C)CC[C@H]2C(C)C)c1 | 5.29 | 2.02 | 1.93 | 1.94 | 2.03 | 2.05
11 | Cc1ccc(C(=O)O[C@@H]2C[C@H](C)CC[C@H]2C(C)C)cc1 | 5.29 | 2.1 | 1.9 | 1.94 | 2.04 | 1.85
12 | Cc1ccccc1C(=O)O[C@@H]1C[C@H](C)CC[C@H]1C(C)C | 5.29 | 1.94 | 2.01 | 1.64 | 1.94 | 1.94
13 | COc1ccc(C(=O)O[C@@H]2C[C@H](C)CC[C@H]2C(C)C)cc1 | 4.57 | 2.01 | 1.98 | 1.67 | 2.04 | 2.01
14 | COc1cccc(C(=O)O[C@@H]2C[C@H](C)CC[C@H]2C(C)C)c1 | 4.57 | 1.99 | 1.97 | 1.97 | 2.11 | 1.97
